The supplement of paper PMC10307832

Assays:
Assay in all cases: relative viability (nuclei count vs DMSO), 5 days (fraction); higher = more cells survive
BX 795 + Bortezomib = compound: O=C(NCCCNc1nc(Nc2cccc(NC(=O)N3CCCC3)c2)ncc1I)c1cccs1 [BX 795] + CC(C)C[C@H](NC(=O)[C@H](Cc1ccccc1)NC(=O)c1cnccn1)B(O)O [Bortezomib] (partner 0.002 µM)
Outline: (§1)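 Relative viability is defined as nuclei in treated wells over nuclei in vehicle wells. Duplicate plates were run and medians reported. Lung cancer cell lines in 1536-well plates were dosed by pin tool one day after seeding, with one drug or with a fixed anchor-drug dose plus five library-drug doses (not always all listed) in √10 steps, and nuclei were counted after 5 days.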

BX 795 + Navitoclax = compound: O=C(NCCCNc1nc(Nc2cccc(NC(=O)N3CCCC3)c2)ncc1I)c1cccs1 [BX 795] + CC1(C)CCC(c2ccc(Cl)cc2)=C(CN2CCN(c3ccc(C(=O)NS(=O)(=O)c4ccc(N[C@H](CCN5CCOCC5)CSc5ccccc5)c(S(=O)(=O)C(F)(F)F)c4)cc3)CC2)C1 [Navitoclax] (partner 0.5 µM)
Outline: as §1

BX 795 + Tozasertib = compound: O=C(NCCCNc1nc(Nc2cccc(NC(=O)N3CCCC3)c2)ncc1I)c1cccs1 [BX 795] + Cc1cc(Nc2cc(N3CCN(C)CC3)nc(Sc3ccc(NC(=O)C4CC4)cc3)n2)n[nH]1 [Tozasertib] (partner 0.1 µM)
Outline: as §1

BX 795 + Alpelisib = compound: O=C(NCCCNc1nc(Nc2cccc(NC(=O)N3CCCC3)c2)ncc1I)c1cccs1 [BX 795] + Cc1nc(NC(=O)N2CCC[C@H]2C(N)=O)sc1-c1ccnc(C(C)(C)C(F)(F)F)c1 [Alpelisib] (partner 2 µM)
Outline: as §1

BX 795 + Decitabine = compound: O=C(NCCCNc1nc(Nc2cccc(NC(=O)N3CCCC3)c2)ncc1I)c1cccs1 [BX 795] + Nc1ncn([C@H]2C[C@H](O)[C@@H](CO)O2)c(=O)n1 [Decitabine] (partner 2 µM)
Outline: as §1

Row | Cell Line | relative viability (BX 795 + Bortezomib; first compound 0.04 µM) | relative viability (BX 795 + Bortezomib; first compound 0.1265 µM) | relative viability (BX 795 + Bortezomib; first compound 0.4 µM) | relative viability (BX 795 + Bortezomib; first compound 1.265 µM) | relative viability (BX 795 + Navitoclax; first compound 0.04 µM) | relative viability (BX 795 + Navitoclax; first compound 0.1265 µM) | relative viability (BX 795 + Navitoclax; first compound 0.4 µM) | relative viability (BX 795 + Navitoclax; first compound 1.265 µM) | relative viability (BX 795 + Tozasertib; first compound 0.04 µM) | relative viability (BX 795 + Tozasertib; first compound 0.1265 µM) | relative viability (BX 795 + Tozasertib; first compound 0.4 µM) | relative viability (BX 795 + Tozasertib; first compound 1.265 µM) | relative viability (BX 795 + Alpelisib; first compound 0.04 µM) | relative viability (BX 795 + Alpelisib; first compound 0.1265 µM) | relative viability (BX 795 + Alpelisib; first compound 0.4 µM) | relative viability (BX 795 + Alpelisib; first compound 1.265 µM) | relative viability (BX 795 + Decitabine; first compound 0.04 µM) | relative viability (BX 795 + Decitabine; first compound 0.1265 µM) | relative viability (BX 795 + Decitabine; first compound 0.4 µM) | relative viability (BX 795 + Decitabine; first compound 1.265 µM)
1 | LC-2-ad | 1.11 | 1.01 | 1.06 | 0.968 | 0.503 | 0.448 | 0.467 | 0.213 | 0.611 | 0.475 | 0.419 | 0.384 | 0.959 | 0.89 | 0.654 | 0.268 | 0.777 | 0.835 | 0.74 | 0.611
2 | LCLC-97TM1 | 0.563 | 0.527 | 0.954 | 0.417 | 0.398 | 0.45 | 0.529 | 0.432 | 0.356 | 0.24 | 0.305 | 0.232 | 0.236 | 0.229 | 0.393 | 0.155 | 0.268 | 0.264 | 0.367 | 0.227
3 | LOU-NH91 | 0.528 | 0.498 | 0.562 | 0.507 | 0.686 | 0.735 | 0.594 | 0.686 | 0.699 | 0.609 | 0.525 | 0.568 | 0.695 | 0.666 | 0.621 | 0.741 | 0.818 | 0.791 | 0.803 | 0.798
4 | LU99A | 1.23 | 1.02 | 0.8 | 0.773 | 1.03 | 0.755 | 0.821 | 0.498 | 0.3 | 0.286 | 0.287 | 0.261 | 0.541 | 0.445 | 0.482 | 0.222 | 0.967 | 0.81 | 0.921 | 0.428
5 | LXF-289 | 0.981 | 1 | 0.977 | 0.967 | 0.971 | 0.926 | 0.975 | 0.628 | 0.209 | 0.155 | 0.154 | 0.142 | 1.06 | 1.04 | 1.11 | 0.693 | 0.448 | 0.347 | 0.582 | 0.373
6 | NCI-H23 | 1.05 | 1.31 | 0.987 | 1.26 | 0.983 | 0.916 | 0.672 | 0.355 | 0.327 | 0.639 | 0.314 | 0.234 | 0.659 | 0.737 | 0.743 | 0.526 | 0.298 | 0.234 | 0.346 | 0.315
7 | NCI-H322M | 1.39 | 1.26 | 1.44 | 1.39 | 1.41 | 1.19 | 1.35 | 1.25 | 0.456 | 0.488 | 0.372 | 0.47 | 0.889 | 0.846 | 0.886 | 1 | 0.87 | 0.887 | 0.801 | 0.741
8 | NCI-H441 | 0.393 | 0.541 | 0.747 | 0.577 | 0.867 | 0.429 | 1.03 | 0.564 | 0.857 | 0.567 | 0.834 | 0.376 | 0.779 | 0.748 | 1.42 | 0.552 | 0.281 | 0.262 | 0.316 | 0.245
9 | NCI-H460 | 1.1 | 1.27 | 1.08 | 1.09 | 1.1 | 1.25 | 1.16 | 0.973 | 0.497 | 0.44 | 0.0824 | 0.184 | 0.475 | 0.457 | 0.498 | 0.245 | 0.497 | 0.584 | 0.446 | 0.403
10 | NCI-H520 | 0.355 | 0.36 | 0.356 | 0.308 | 0.736 | 1.12 | 0.95 | 0.535 | 0.44 | 0.447 | 0.421 | 0.401 | 0.859 | 0.91 | 0.786 | 0.444 | 0.55 | 0.545 | 0.622 | 0.425
11 | NCI-H596 | 0.947 | 0.875 | 0.999 | 1.08 | 1.04 | 1.05 | 1.16 | 0.945 | 0.963 | 0.906 | 1.03 | 0.699 | 0.508 | 0.483 | 0.546 | 0.363 | 1.05 | 0.982 | 1.1 | 1.08
12 | NCI-H647 | 0.913 | 1.11 | 0.801 | 0.3 | – | 1.08 | 1.07 | 1.01 | 0.256 | 0.352 | 0.218 | 0.233 | 1.13 | 1.18 | 1.31 | 0.522 | 0.383 | 0.447 | 0.513 | 0.37
13 | NCI-H727 | 1.05 | 0.962 | 0.926 | 0.739 | 0.45 | 0.535 | 0.471 | 0.37 | 0.683 | 0.706 | 0.512 | 0.546 | 0.577 | 0.763 | 0.583 | 0.376 | 1.23 | 0.943 | 0.845 | 0.905
14 | NCI-H838 | 0.841 | 0.792 | 0.719 | 0.401 | 1.05 | 1.1 | 1.02 | 0.519 | 0.236 | 0.303 | 0.272 | 0.22 | 0.944 | 1.03 | 0.995 | 0.412 | 0.568 | 0.487 | 0.512 | 0.322
15 | NCI-H1355 | 1.23 | 1.22 | 1.31 | 1.22 | 0.974 | 0.937 | 1.09 | 0.626 | 0.589 | 0.442 | 0.486 | 0.385 | 0.833 | 0.808 | 0.914 | 0.781 | 0.355 | 0.278 | 0.449 | 0.337
16 | NCI-H1437 | 0.543 | 0.493 | 0.533 | 0.415 | 1.08 | 1.06 | 1.15 | 0.94 | 0.378 | 0.395 | 0.429 | 0.413 | 1.02 | 1.06 | 1.01 | 0.863 | 0.616 | 0.586 | 0.846 | 0.618
